Like-named read-outs stand apart in the source and are kept apart here.
Columns and labels:
PPARδ-RXRα heterodimer = target: T1, PPARδ-RXRα heterodimer (Homo sapiens, UniProt Q03181); assay: PPARδ-RXRα heterodimer ligand activity, luciferase reporter in COS-1 transformant (Test Example 4); format: cell-based; settings: COS-1 transformant (hPPARδ, hRXRα, reporter), 36-48 hours, concentration for 50% of the maximum fold induction
T1 construct: expressed in transfected cells; host or cells: COS-1
T1 sequence (Q03181 1-441): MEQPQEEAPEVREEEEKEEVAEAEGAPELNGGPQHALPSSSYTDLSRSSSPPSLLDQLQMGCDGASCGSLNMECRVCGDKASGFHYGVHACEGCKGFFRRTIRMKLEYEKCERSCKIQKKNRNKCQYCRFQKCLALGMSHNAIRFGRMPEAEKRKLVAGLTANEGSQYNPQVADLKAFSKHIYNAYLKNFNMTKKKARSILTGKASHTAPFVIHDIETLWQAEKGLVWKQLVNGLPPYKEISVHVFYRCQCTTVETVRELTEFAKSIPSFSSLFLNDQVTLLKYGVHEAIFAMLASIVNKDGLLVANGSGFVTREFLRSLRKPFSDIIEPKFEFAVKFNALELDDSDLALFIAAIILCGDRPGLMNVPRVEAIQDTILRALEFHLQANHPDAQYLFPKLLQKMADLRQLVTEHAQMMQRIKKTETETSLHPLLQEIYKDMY
T1 sequence (P19793 1-462 partner): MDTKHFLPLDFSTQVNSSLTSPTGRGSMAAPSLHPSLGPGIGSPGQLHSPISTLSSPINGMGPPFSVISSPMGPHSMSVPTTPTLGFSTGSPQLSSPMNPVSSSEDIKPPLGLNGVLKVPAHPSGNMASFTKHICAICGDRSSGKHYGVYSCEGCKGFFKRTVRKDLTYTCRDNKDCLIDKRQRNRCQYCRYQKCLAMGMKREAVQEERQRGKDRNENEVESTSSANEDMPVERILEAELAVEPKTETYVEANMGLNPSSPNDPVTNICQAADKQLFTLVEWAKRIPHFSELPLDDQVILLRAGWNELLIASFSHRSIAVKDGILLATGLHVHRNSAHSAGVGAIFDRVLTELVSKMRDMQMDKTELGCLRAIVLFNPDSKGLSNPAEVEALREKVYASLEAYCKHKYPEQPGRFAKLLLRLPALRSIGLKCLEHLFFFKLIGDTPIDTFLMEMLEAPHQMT
Outline: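 COS-1 cells transiently co-transfected with human PPARδ, human RXRα, PPRE-luciferase reporter and pRL-tk, then exposed to compound 36-48 h at 37 °C in DMEM with 0.1% fatty acid-free BSA. Luciferase read as fold induction over untreated; EC50 at 50% of maximal fold induction.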

KKAY mice = assay: Hypoglycemic and hypolipidemic actions in mice (Test Example 1); format: in vivo; settings: Mus musculus, po, 96 h, 0.005% in powdery diet, four days, non-treated group taken as 100%
Outline: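 KKAY mice (9 to 12 weeks old, 5 per group) were fed diet containing 0.005% test compound ad libitum for four days. Plasma glucose and triglycerides from orbital venous blood were measured enzymatically, reported as % decrease relative to untreated group (100%).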

[1] = rate of decrease in blood glucose level, read-out: Hypoglycemic action (%)
[2] = rate of decrease in blood triglyceride level, read-out: Hypolipidemic action (%)

| Structure (SMILES) | EC50 (PPARδ-RXRα heterodimer) [nM] | inhibition in vivo at 0.005 % in diet (KKAY mice; [1]) [%] | inhibition in vivo at 0.005 % in diet (KKAY mice; [2]) [%] |
| --- | --- | --- | --- |
| CC(C)c1nn(-c2ccc(C(F)(F)F)cn2)cc1CCCOc1cc(CCC(=O)O)n(-c2ccccc2)n1 [Example 24, 3-[3-(3-{3-isopropyl-1-[5-(trifluoromethyl)-2-pyridyl]-1H-pyrazol-4-yl}propoxy)-1-phenyl-1H-pyrazol-5-yl]propionic acid] | 9.3 |  |  |
| CCOc1nn(-c2ccc(C(F)(F)F)cn2)cc1CCCOc1cccc(CC(=O)O)c1 [Example 30, [3-(3-{3-ethoxy-1-[5-(trifluoromethyl)-2-pyridyl]-1H-pyrazol-4-yl}propoxy)phenyl]acetic acid] | 2.6 | 35 | 58 |
| CCOc1nn(-c2ccc(C(F)(F)F)cn2)cc1CCCOc1ccccc1CC(=O)O [Example 31, (2-(3-{3-ethoxy-1-[5-(trifluoromethyl)-2-pyridyl]-1H-pyrazol-4-yl}propoxy)phenyl]acetic acid] | 9.6 | 50 | 69 |
| CCOc1nn(-c2ccc(C(F)(F)F)cn2)cc1CCCOc1cc(CCC(=O)O)n(-c2ccccc2)n1 [Example 42, 3-[3-(3-{3-ethoxy-1-[5-(trifluoromethyl)-2-pyridyl]-1H-pyrazol-4-yl}propoxy)-1-phenyl-1H-pyrazol-5-yl]propionic acid] | 1.9 | 32 | 19 |
| CCCc1nn(-c2ccc(C(F)(F)F)cn2)cc1CCCOc1cc(CCC(=O)O)n(-c2ccccc2)n1 [Example 43, 3-[1-phenyl-3-(3-{3-propyl-1-[5-(trifluoromethyl)-2-pyridyl]-1H-pyrazol-4-yl}propoxy)-1H-pyrazol-5-yl]propionic acid] | 3.7 |  |  |
| CCCc1nn(-c2ccc(C(F)(F)F)cn2)cc1CCCCOc1cc(CCC(=O)O)n(-c2ccccc2)n1 [Example 58, 3-[1-phenyl-3-(4-{3-propyl-1-[5-(trifluoromethyl)-2-pyridinyl]-1H-pyrazol-4-yl}butoxy)-1H-pyrazol-5-yl]propanoic acid] | 1.9 |  |  |
| CCCc1nn(-c2ccc(C(F)(F)F)cn2)cc1CCCOc1ccc(CCC(=O)O)c(OCC)c1 [Example 98, 3-[2-ethoxy-4-(3-{3-propyl-1-[5-(trifluoromethyl)-2-pyridinyl]-1H-pyrazol-4-yl}propoxy)phenyl]propanoic acid] | 1.2 |  |  |
| CCOc1nn(-c2ccc(C(F)(F)F)cn2)cc1CCCCOc1cc(CCC(=O)O)n(-c2ccccc2)n1 [Example 104, 3-[3-(4-{3-ethoxy-1-[5-(trifluoromethyl)-2-pyridinyl]-1H-pyrazol-4-yl}butoxy)-1-phenyl-1H-pyrazol-5-yl]propanoic acid] | 7 |  |  |
| CCOc1nn(-c2ccc(C(F)(F)F)cn2)cc1CCCOc1ccc(CCC(=O)O)c(OC(C)C)c1 [Example 116, 3-[4-(3-{3-ethoxy-1-[5-(trifluoromethyl)-2-pyridinyl]-1H-pyrazol-4-yl}propoxy)-2-isopropoxyphenyl]propanoic acid] | 0.6 |  |  |
| O=C(O)CCc1cc(OCCCc2cn(-c3ccc(C(F)(F)F)cn3)nc2-c2ccccc2)nn1-c1ccccc1 [Example 125, 3-[1-phenyl-3-(3-{3-phenyl-1-[5-(trifluoromethyl)-2-pyridyl]-1H-pyrazol-4-yl}propoxy)-1H-pyrazol-5-yl]propionic acid] | 1.5 |  |  |
| CCOc1nn(-c2ccc(C(F)(F)F)cn2)cc1CCCCOc1ccccc1CC(=O)O [Example 137, [2-(4-{3-ethoxy-1-[5-(trifluoromethyl)-2-pyridyl]-1H-pyrazol-4-yl}butoxy)phenyl]acetic acid] | 9.6 |  |  |
| COc1cccc(CC(=O)O)c1OCCCc1cn(-c2ccc(C(F)(F)F)cn2)nc1C(C)C [Example 181, [2-(3-{3-isopropyl-1-[5-(trifluoromethyl)-2-pyridyl]-1H-pyrazol-4-yl}propoxy)-3-methoxyphenyl]acetic acid] | 84 | 49 | 49 |
| O=C(O)CCc1cc(OCCCc2cn(-c3ccc(C(F)(F)F)cn3)nc2C2CCCCC2)nn1-c1ccccc1 [Example 189, 3-[3-(3-{3-cyclohexyl-1-[5-(trifluoromethyl)-2-pyridyl]-1H-pyrazol-4-yl}propoxy)-1-phenyl-1H-pyrazol-5-yl]propionic acid] | 2.1 | 50 | 38 |
| CCOc1ccc(CC(=O)O)cc1OCCCc1cn(-c2ccc(C(F)(F)F)cn2)nc1C1CCCCC1 [Example 201, [3-(3-{3-cyclohexyl-1-[5-(trifluoromethyl)-2-pyridyl]-1H-pyrazol-4-yl}propoxy)-4-ethoxyphenyl]acetic acid] | 1.2 |  |  |
| CCC(CC)c1nn(-c2ccc(C(F)(F)F)cn2)cc1CCCOc1c(CC(=O)O)cccc1OC [Example 212, [2-(3-{3-(1-ethylpropyl)-1-[5-(trifluoromethyl)-2-pyridyl]-1H-pyrazol-4-yl}propoxy)-3-methoxyphenyl]acetic acid] | 42 | 52 | 55 |
| CCC(CC)c1nn(-c2ccc(C(F)(F)F)cn2)cc1CCCOc1c(C)cccc1CC(=O)O [Example 213, [2-(3-{3-(1-ethylpropyl)-1-[5-(trifluoromethyl)-2-pyridyl]-1H-pyrazol-4-yl}propoxy)-3-methylphenyl]acetic acid] | 8.3 | 51 | 52 |
| CCC(CC)c1nn(-c2ccc(Cl)cn2)cc1CCCOc1c(CC(=O)O)cccc1OC [Example 223, (2-{3-[1-(5-chloro-2-pyridyl)-3-(1-ethylpropyl)-1H-pyrazol-4-yl]propoxy}-3-methoxyphenyl)acetic acid] | 97 | 38 | 55 |
| CCc1cccc(CC(=O)O)c1OCCCc1cn(-c2ccc(C(F)(F)F)cn2)nc1C(C)C [Example 227, [3-ethyl-2-(3-{3-isopropyl-1-[5-(trifluoromethyl)-2-pyridinyl]-1H-pyrazol-4-yl}propoxy)phenyl]acetic acid] | 54 | 43 | 26 |
| CCCc1nn(-c2ccc(C(F)(F)F)cn2)cc1CCCOc1c(Br)cccc1CC(=O)O [Example 237, [3-bromo-2-(3-{3-propyl-1-[5-(trifluoromethyl)-2-pyridinyl]-1H-pyrazol-4-yl}propoxy)phenyl]acetic acid] | 6.1 |  |  |
| CCc1cccc(CC(=O)O)c1OCCCc1cn(-c2ccc(C(F)(F)F)nn2)nc1C(C)C [Example 245, [3-ethyl-2-(3-{3-isopropyl-1-[6-(trifluoromethyl)pyridazin-3-yl]-1H-pyrazol-4-yl}propoxy)phenyl]acetic acid] | 130 | 42 | 55 |
| COc1ccc(CC(=O)O)cc1OCCCc1cn(-c2ccc(C(F)(F)F)cn2)nc1C1CCCCC1 [Example 304, [3-(3-{3-cyclohexyl-1-[5-(trifluoromethyl)-2-pyridinyl]-1H-pyrazol-4-yl}propoxy)-4-methoxyphenyl]acetic acid] | 5.7 |  |  |
| Cc1cccc(CC(=O)O)c1OCCCc1cn(-c2ccc(C(F)(F)F)cn2)nc1C1CCCCC1 [Example 316, [2-(3-{3-cyclohexyl-1-[5-(trifluoromethyl)-2-pyridinyl]-1H-pyrazol-4-yl}propoxy)-3-methylphenyl]acetic acid] | 9.9 |  |  |
| CCCc1nn(-c2ccc(C(F)(F)F)cn2)cc1CCCOc1c(C)cccc1CC(=O)O [Example 319, [3-methyl-2-(3-{3-propyl-1-[5-(trifluoromethyl)-2-pyridinyl]-1H-pyrazol-4-yl}propoxy)phenyl]acetic acid] | 5.1 |  |  |
| Cc1cccc(CC(=O)O)c1OCCCc1cn(-c2ccc(C(F)(F)F)nn2)nc1C(C)(C)C [Example 367, [2-(3-{3-tert-butyl-1-[6-(trifluoromethyl)pyridazin-3-yl]-1H-pyrazol-4-yl}propoxy)-3-methylphenyl]acetic acid] | 150 |  |  |

— patent publication US20060148858A1, “1, 2-Azole derivatives with hypoglycemic and hypolipidemic activity” (priority 2002, published 2006)
